Each block holds one compound with its values, some of them ahead of it. The source made the active and inactive calls.
Experiments:
[1] = target: Voltage-dependent T-type calcium channel subunit alpha-1H (Homo sapiens, UniProt O95180); format: functional;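 further: channel activity triggered by adding a high calcium stimulation buffer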
[2] = target: T1, Carboxy-terminal domain RNA polymerase II polypeptide A small phosphatase 1 (Homo sapiens, UniProt Q9GZU7); assay: inhibitors of CTDSP1, concentration-response testing, biochemical assay, absorbance-based, actives from ultra-high-throughput screening (AID 540297); format: functional
T1 sequence (Q9GZU7 whole entry): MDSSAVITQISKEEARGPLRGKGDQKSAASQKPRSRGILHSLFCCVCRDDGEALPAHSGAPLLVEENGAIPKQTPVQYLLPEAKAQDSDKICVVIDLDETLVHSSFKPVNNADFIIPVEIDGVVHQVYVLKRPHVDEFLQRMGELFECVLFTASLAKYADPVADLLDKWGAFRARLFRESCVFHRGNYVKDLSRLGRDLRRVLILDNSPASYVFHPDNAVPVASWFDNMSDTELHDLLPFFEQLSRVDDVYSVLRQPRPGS

[3] = target: Eukaryotic translation initiation factor 4E (Mus musculus, UniProt P63073); assay: eIF4E–eIF4G protein interaction inhibitors, dose response, biochemical, TR-FRET (AID 855); format: functional;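 further: potency for disrupting eIF4E binding to eIF4GI seen as loss of FRET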
Cytochrome P450 3A4 = Cytochrome P450 3A4 (Homo sapiens, UniProt P08684); details: Potency;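 further: confirmatory qHTS run detecting inhibitors and substrates of CYP3A4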
Cytochrome P450 2C9 = Cytochrome P450 2C9 (Homo sapiens, UniProt P11712); details: Potency
[4] = target: T2, Corticotropin-releasing factor receptor 2/Corticotropin-releasing factor-binding protein (Homo sapiens, UniProt P24387+Q13324); assay: Dose Response confirmation of uHTS hits for small molecule antagonists of the CRF-binding protein and CRF-R2 receptor complex.; format: functional; details: read-out: IC50_Mean
T2 sequence (Q13324 whole entry): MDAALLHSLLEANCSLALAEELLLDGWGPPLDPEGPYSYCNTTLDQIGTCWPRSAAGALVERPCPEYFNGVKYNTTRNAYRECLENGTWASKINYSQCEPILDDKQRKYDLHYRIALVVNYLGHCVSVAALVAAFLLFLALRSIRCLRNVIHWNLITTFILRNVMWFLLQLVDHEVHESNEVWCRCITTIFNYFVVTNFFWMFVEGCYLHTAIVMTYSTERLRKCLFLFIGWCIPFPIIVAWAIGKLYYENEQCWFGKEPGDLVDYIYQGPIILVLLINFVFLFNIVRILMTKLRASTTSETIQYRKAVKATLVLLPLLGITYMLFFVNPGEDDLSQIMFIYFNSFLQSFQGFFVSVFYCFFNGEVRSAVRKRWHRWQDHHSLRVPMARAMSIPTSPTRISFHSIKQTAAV
T2 sequence (P24387 whole entry): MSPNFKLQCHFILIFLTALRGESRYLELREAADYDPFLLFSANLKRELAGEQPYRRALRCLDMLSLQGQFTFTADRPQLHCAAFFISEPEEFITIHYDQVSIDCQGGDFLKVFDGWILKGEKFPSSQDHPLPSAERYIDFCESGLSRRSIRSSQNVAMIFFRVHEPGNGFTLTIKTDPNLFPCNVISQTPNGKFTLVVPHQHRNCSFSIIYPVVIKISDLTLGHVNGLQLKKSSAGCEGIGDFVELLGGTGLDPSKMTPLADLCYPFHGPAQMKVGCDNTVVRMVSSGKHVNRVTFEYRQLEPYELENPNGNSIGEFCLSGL

[5] = target: T2, Corticotropin-releasing factor receptor 2/Corticotropin-releasing factor-binding protein; assay: activators of CRF receptor 2 with binding protein – uHTS hits, confirmation (AID 602473); format: functional; details: read-out: EC50_Mean
Caspase-3 = target: T3, Caspase-3 (Homo sapiens, UniProt P42574); format: functional;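 further: Dose-response selectivity test against caspase-3 for candidate inhibitors of sentrin-specific proteases (SENPs)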
T3 sequence (P42574 whole entry): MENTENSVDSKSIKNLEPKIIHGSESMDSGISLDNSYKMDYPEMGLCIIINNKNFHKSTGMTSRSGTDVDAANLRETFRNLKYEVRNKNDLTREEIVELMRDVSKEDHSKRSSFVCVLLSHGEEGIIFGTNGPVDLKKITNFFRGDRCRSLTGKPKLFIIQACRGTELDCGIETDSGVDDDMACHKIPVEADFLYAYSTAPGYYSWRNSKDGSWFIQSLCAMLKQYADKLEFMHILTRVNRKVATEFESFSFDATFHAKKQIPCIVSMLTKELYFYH

[6] = target: T4, Sentrin-specific protease 8 (Homo sapiens, UniProt Q96LD8); format: functional;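 further: luminescence read-out of SENP8 inhibition, dose-response confirmation following an ultra-high-throughput screen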
T4 sequence (Q96LD8 whole entry): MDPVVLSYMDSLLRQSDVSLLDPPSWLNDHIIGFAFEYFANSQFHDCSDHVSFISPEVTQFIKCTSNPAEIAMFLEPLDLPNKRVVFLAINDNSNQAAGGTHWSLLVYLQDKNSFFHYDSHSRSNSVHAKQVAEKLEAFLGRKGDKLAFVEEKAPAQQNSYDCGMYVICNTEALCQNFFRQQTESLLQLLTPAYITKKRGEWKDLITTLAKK

[7] = target: T5, Sentrin-specific protease 6 (Homo sapiens, UniProt Q9GZR1); format: functional;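 further: Luminescence-based dose-response confirmatory assay of SENP6 inhibition, following up an ultra-high-throughput screen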
T5 sequence (Q9GZR1 whole entry): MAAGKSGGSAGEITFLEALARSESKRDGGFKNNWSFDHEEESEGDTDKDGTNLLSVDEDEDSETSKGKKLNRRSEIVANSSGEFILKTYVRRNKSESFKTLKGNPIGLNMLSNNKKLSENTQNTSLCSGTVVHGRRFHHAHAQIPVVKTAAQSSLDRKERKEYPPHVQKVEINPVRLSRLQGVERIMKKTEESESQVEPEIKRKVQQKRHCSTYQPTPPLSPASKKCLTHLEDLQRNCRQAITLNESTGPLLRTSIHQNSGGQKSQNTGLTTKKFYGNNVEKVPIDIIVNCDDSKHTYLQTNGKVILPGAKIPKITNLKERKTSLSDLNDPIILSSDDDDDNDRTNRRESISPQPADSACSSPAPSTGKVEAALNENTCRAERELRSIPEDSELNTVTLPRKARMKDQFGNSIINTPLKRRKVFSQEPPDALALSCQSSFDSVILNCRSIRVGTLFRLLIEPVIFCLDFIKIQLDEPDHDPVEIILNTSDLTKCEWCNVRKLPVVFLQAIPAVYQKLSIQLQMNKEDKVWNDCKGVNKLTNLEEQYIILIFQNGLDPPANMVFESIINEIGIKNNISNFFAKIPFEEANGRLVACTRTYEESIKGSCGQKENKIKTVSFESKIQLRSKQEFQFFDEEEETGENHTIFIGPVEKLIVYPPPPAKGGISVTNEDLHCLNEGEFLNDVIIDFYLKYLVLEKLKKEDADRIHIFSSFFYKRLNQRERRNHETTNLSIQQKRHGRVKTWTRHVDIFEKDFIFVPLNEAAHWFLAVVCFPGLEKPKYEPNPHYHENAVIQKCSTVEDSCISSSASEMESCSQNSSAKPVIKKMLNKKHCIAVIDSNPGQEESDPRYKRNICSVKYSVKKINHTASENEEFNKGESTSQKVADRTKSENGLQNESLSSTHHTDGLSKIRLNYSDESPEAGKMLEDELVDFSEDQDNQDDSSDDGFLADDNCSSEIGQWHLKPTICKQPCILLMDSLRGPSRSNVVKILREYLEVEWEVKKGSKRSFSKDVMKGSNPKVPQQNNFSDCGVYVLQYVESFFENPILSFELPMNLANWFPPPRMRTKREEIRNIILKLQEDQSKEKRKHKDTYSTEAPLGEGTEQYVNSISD

[8] = target: T6, Sentrin-specific protease 7 (Homo sapiens, UniProt Q9BQF6); format: functional;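 further: Luminescence-based dose-response confirmation of ultra-high-throughput screening hits, measuring inhibition of SENP7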
T6 sequence (Q9BQF6 whole entry): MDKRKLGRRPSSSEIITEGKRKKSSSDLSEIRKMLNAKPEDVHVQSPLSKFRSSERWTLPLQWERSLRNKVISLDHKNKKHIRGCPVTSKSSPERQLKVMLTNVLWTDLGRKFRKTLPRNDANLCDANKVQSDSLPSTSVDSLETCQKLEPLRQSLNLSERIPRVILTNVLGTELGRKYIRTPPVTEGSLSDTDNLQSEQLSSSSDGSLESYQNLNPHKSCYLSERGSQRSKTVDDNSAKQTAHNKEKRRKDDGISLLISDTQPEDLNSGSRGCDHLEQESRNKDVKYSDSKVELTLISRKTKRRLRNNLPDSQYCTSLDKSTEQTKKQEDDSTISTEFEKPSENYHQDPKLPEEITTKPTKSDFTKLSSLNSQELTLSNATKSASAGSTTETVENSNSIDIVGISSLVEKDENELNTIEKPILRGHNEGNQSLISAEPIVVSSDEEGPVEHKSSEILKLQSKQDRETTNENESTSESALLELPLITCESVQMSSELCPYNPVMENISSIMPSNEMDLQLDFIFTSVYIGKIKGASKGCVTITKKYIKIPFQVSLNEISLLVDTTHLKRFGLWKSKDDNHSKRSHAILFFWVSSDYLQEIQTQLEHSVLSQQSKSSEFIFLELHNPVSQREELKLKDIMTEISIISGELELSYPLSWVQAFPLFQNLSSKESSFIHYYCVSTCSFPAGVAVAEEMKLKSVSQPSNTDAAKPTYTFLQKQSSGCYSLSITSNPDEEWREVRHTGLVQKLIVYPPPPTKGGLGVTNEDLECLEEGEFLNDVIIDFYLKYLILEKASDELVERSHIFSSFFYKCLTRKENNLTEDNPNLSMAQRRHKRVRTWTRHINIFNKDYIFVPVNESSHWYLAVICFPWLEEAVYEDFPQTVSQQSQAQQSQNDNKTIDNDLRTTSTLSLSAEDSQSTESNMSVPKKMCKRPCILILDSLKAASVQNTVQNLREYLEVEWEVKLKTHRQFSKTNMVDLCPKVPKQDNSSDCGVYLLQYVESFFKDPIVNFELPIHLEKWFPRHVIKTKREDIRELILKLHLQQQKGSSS

[9] = target: FAD-linked sulfhydryl oxidase ALR (Homo sapiens, UniProt P55789); assay: inhibitors of human ALR sulfhydryl oxidase, dose response, biochemical, H2O2 detection, luminescence, cherry-pick (AID 493248)
[10] = target: Melanin-concentrating hormone receptor 1 (Homo sapiens, UniProt Q99705); assay: Fluorescence-based counterscreen for antagonists of the G-protein coupled receptor 7 (GPR7): cell-based high throughput dose response assay to identify antagonists of the melanin-concentrating hormone receptor 1 (MCHR1).; format: functional
Melanin-concentrating hormone receptor 1, sequence (Q99705 whole entry): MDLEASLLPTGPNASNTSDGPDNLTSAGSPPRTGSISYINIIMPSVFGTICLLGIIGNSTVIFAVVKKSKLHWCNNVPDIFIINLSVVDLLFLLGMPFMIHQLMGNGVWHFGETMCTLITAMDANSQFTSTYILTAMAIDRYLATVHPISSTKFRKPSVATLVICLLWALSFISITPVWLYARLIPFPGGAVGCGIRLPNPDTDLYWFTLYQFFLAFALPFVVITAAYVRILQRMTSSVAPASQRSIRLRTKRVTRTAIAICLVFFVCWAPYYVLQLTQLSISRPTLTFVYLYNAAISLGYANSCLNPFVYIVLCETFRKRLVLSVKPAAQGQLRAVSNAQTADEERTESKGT

Voltage-dependent T-type calcium channel subunit alpha-1H, sequence (O95180 whole entry, the tested form may be a part): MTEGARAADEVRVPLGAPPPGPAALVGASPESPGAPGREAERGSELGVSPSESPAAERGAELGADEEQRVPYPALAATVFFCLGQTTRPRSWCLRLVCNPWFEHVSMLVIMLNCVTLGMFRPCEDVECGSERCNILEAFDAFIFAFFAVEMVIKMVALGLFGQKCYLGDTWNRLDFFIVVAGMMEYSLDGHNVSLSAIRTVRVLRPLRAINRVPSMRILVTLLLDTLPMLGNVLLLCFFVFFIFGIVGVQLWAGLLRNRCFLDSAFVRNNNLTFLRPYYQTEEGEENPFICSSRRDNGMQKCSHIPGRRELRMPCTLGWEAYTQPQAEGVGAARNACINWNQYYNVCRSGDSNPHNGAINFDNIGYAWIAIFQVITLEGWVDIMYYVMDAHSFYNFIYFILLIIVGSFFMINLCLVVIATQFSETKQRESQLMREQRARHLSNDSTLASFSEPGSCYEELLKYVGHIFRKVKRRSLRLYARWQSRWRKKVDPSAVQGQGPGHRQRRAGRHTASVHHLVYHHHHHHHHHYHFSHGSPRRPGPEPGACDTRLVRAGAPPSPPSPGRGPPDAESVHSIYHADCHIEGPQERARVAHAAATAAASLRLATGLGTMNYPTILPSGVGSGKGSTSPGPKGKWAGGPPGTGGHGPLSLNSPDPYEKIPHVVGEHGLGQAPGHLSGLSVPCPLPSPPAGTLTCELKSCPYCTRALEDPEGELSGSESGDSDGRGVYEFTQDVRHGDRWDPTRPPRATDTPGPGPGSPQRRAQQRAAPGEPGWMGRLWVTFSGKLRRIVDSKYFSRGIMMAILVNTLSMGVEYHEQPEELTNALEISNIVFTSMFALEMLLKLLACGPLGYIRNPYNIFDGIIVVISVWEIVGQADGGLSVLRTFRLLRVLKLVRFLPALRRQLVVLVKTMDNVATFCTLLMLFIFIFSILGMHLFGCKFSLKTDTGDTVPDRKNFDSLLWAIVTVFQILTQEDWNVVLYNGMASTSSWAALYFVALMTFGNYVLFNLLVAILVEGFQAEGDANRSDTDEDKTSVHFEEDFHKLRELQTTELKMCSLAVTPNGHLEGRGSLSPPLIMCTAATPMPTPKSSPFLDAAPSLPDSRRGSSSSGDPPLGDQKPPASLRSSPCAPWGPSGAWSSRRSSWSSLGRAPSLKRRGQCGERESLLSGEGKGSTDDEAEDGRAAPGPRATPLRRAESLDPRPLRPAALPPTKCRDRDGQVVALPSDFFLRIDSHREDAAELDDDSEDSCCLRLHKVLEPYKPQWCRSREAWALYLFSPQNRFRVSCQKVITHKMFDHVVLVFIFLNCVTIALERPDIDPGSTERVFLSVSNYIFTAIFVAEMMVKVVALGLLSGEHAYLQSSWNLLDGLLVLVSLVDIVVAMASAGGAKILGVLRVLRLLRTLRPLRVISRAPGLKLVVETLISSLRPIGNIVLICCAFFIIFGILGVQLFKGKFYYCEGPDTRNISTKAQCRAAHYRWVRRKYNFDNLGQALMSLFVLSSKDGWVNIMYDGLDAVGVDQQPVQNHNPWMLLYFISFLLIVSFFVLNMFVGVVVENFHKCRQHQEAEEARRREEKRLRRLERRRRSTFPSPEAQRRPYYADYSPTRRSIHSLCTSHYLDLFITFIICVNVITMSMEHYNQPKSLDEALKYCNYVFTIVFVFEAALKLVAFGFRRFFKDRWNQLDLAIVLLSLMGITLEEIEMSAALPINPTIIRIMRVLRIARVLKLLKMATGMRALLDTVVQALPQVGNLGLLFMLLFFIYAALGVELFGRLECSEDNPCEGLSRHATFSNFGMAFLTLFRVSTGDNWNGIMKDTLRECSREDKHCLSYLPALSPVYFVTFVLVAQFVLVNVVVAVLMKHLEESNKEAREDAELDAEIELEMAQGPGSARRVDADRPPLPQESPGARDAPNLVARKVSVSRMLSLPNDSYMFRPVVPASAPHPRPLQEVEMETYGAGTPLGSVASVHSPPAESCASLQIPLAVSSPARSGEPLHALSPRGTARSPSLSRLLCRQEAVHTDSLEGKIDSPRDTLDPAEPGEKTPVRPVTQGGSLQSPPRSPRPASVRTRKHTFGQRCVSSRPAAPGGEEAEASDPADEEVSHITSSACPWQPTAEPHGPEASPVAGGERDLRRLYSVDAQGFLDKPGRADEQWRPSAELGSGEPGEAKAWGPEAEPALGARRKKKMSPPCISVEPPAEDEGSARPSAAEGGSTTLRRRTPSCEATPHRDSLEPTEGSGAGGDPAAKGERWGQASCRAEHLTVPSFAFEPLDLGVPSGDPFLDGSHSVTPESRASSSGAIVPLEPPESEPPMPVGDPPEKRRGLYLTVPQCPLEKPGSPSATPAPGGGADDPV
Cytochrome P450 2C9, sequence (P11712 whole entry): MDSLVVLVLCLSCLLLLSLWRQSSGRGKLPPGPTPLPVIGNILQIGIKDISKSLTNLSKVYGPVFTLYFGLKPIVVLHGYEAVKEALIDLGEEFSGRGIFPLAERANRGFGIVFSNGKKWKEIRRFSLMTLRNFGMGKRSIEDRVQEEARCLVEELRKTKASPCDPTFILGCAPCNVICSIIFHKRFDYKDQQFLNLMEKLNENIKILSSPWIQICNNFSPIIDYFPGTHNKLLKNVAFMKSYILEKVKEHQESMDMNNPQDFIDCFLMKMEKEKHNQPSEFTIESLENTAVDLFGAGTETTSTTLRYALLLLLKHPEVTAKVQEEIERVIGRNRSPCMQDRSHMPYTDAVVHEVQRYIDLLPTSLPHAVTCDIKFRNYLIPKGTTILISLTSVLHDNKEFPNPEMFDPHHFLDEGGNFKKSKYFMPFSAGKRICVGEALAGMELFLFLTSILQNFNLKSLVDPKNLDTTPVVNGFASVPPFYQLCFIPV
FAD-linked sulfhydryl oxidase ALR, sequence (P55789 whole entry): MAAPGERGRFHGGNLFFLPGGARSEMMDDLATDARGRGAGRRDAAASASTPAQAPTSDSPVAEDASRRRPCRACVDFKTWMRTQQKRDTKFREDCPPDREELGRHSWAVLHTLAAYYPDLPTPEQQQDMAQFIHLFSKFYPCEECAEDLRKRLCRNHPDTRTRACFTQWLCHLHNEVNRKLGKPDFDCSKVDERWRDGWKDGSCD
Eukaryotic translation initiation factor 4E, sequence (P63073 whole entry): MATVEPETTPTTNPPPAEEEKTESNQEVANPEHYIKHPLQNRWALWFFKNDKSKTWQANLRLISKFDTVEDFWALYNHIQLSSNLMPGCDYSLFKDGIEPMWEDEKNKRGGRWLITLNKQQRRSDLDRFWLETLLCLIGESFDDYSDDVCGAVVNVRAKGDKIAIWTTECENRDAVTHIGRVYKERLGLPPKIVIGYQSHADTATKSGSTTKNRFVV
Cytochrome P450 3A4, sequence (P08684 whole entry): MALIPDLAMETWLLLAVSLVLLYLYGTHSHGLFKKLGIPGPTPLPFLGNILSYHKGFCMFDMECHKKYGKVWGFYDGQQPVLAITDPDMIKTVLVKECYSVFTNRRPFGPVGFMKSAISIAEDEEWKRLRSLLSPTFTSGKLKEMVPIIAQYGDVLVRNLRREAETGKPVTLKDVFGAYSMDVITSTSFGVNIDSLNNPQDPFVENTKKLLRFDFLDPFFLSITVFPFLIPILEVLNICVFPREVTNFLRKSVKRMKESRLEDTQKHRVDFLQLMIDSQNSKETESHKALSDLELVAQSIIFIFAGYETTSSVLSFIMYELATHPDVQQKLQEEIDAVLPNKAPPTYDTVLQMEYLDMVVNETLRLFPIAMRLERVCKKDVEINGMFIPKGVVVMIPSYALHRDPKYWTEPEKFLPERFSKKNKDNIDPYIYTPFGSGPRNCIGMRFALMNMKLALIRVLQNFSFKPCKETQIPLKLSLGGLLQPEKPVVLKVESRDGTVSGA

EC50 [1]: 5.43 µM (active)
SMILES: FC(F)(F)c1cc(C(F)(F)F)c2ccc(N3CCN(c4ccc(Cl)cc4)CC3)nc2n1

IC50 [2]: 4.16 µM (active) | IC50 [3]: 50 µM (inactive)
SMILES: Cc1ccc([N+](=O)[O-])cc1NC(=O)Cc1cccs1

AC50 (Cytochrome P450 3A4): 3.16 µM (inconclusive) | AC50 (Cytochrome P450 2C9): 3.98 µM (inconclusive)
SMILES: CC1CCC2C(=O)OC(CO)CN2C1c1ccc(Br)cc1 (stereo unspecified)

IC50 [4]: > 47.1 µM (inactive) | EC50 [1]: 7.96 µM (active) | EC50 [5]: > 53 µM (inactive)
SMILES: Cc1ccccc1NC(=O)c1ccc(-c2ccc(Cl)cc2Cl)o1

EC50 [1]: 4.88 µM (active)
SMILES: Cc1nn(Cc2c(F)c(F)c(F)c(F)c2F)c(C)c1NC(=O)c1ccc(COc2ccc(F)cc2)o1

IC50 (Caspase-3): 23.1 µM (active) | IC50 [7]: 6 µM (active) | IC50 [8]: 3.93 µM (active) | AC50 (Cytochrome P450 2C9): 3.98 µM (inconclusive)
SMILES: COc1ccc(/C=C/C(=O)c2ccccc2O)cc1
IC50 [6]: 10.6 µM (active)

AC50 [9]: 8.49 µM (active) | IC50 [10]: 21.5 µM (not active)
SMILES: CCn1c(CNc2ccc(Cl)cc2)nnc1SCCN1CCCCC1

Source: ChEMBL document CHEMBL1201862, “PubChem BioAssay data set” (2004)
